The text below walks through data of US20240424012A1, “COMBINATIONS AND USES THEREOF” (Incyte Corporation, priority 2011, published 2024).

Where “and” joins values, the source holds several entries; their conditions need not be identical. Identical values can stand only once.

The test system of one assay is MEC-1 cells. The assay can be described thus: ADCC / cytotoxicity assay: killing of MEC-1 cells by MOR208 and fludarabine alone and in combination. In kind it is cell-based, human. Conditions: for normalized specific killing: background subtracted, combination set to 1, Fludarabine 18 μg/ml, MOR208 66 pM; for % dead cells: raw data, MOR208 66 pm, FLU 18 μg/ml, 72 h pre-incubation, E:T 30:1, 4 h.

Assay [1] has as its system RAMOS human Burkitt's lymphoma cells. The assay can be described thus: Subcutaneously (SC)-implanted human Ramos Burkitt's B-cell lymphoma tumor growth model. Conditions: for Increased time to 4000 mg [%] / Reduced tumor growth at study Day 38 (%): control 0; for Tumor Volume at study day 38, Average: vehicle average 4014. Format: in vivo, SCID mice.
Assay [2] concerns RAMOS human lymphoma cells. In kind it is in vivo, SCID mice. Particulars: MOR208 3 mg/kg i.v. twice weekly for 3 weeks; FLU 125 mg/kg i.p. once daily Day 0-5; combination of both; vehicle 18.5.
A further assay has as its target T1, Human CD19 (human, UniProt P15391 20-556).
T1 sequence: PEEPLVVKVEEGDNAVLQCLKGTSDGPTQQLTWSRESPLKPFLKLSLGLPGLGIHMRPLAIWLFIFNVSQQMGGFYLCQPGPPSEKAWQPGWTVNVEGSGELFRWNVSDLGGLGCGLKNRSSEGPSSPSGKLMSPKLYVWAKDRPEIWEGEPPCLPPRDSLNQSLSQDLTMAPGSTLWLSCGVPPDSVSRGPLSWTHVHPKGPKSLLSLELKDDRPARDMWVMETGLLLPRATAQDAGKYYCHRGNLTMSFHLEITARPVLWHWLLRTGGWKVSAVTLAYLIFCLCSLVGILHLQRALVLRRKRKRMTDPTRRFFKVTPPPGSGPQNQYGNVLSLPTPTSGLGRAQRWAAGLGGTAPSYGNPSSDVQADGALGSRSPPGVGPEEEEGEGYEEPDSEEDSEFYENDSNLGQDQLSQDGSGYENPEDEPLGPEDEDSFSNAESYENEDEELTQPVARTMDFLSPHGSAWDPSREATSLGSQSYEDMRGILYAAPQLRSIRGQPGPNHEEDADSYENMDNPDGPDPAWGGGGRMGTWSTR
The assay is described as follows: cell-based or functional assay.

Where [3] appears, read: Experiment 1 (PBMC donor 1), control RefMab33.
[4] abbreviates: Experiment 2 (PBMC donor 2), control RefMab33.
The mark [5] stands for this setting: Experiment 3 (PBMC donor 3), control PBMCs alone.
Setting [6] is: MOR208 10 mg/kg, FLU 125 mg/kg, combination of MOR208 and FLU 125.
Where [7] appears, read: MOR208 10 mg/kg, Fludarabine 125 mg/kg IP Q1Dx5, combination MOR208/FLU 125.
[8] abbreviates: MOR208 10 mg/kg, Fludarabine 125 mg/kg, MOR208 + FLU 125 combination.

Consider Fludarabine [reference compound], for which the normalized specific killing with MEC-1 cells (Average of Experiments 1-3) came out at 0.7; in the assay with MEC-1 cells (Experiment 1) it was 0.6; in the assay on MEC-1 cells (Experiment 2), 0.7; in the assay on MEC-1 cells (Experiment 3), 0.8. Besides, the “% dead cells” value in the assay with MEC-1 cells (setting [3]) amounted to 36.39%; with MEC-1 cells (setting [4]) it was 38.48%; in the assay on MEC-1 cells (setting [5]), 57.27%. In addition, the “EC50 (MEC-1 cell killing)” value with MEC-1 cells (FLU, test concentration stated to be near or at the EC50) was ~18 µg/mL. The “Increased time to 4000 mg [%]” value is recorded as 30.19% in assay [1] (FLU 250 mg/kg) and 22.37% in assay [1] (setting [6]). Also, the “Reduced tumor growth at study Day 38 (%)” value in assay [1] (FLU 250 mg/kg) is 64.8%; in assay [1] (setting [6]) it was 48.3%. In addition, the figures for the “Increased time to 4000 mg [%], normalized to Fractional Product combination = 1” value in assay [1] (Fludarabine 250 mg/kg) and in assay [1] (setting [8]) were 0.8 and 0.62, respectively. Further, the “Reduced tumor growth at study Day 38 (%), normalized to Fractional Product combination = 1” value is 0.9 in assay [1] (Fludarabine 250 mg/kg) and 0.75 in assay [1] (setting [8]). Also, the “Tumor Volume at study day 38, Average” value in assay [1] (Fludarabine 250 mg/kg IP Q1Dx5) was determined as 1413 mm^3; in assay [1] (setting [7]), 2073 mm^3. For the same molecule, in assay [2], the “Median Survival Time” value was found to be 22 days.

B1: MOR208 (antibody, human IgG1, kappa, V domains shown)
VH: EVQLVESGGGLVKPGGSLKLSCAASGYTFTSYVMHWVRQAPGKGLEWIGYINPYNDGTKYNEKFQGRVTISSDKSISTAYMELSSLRSEDTAMYYCARGTYYYGTRVFDYWGQGTLVTVSS
VL: DIVMTQSPATLSLSPGERATLSCRSSKSLQNVNGNTYLYWFQQKPGQSPQLLIYRMSNLNSGVPDRFSGSGSGTEFTLTISSLEPEDFAVYYCMQHLEYPITFGAGTKLEIKR
Turning to B1, in the assay with Human CD19, the “EC50 of MEC-1 cell killing (ADCC)” value was ~0.066 nM.

B2: MOR208: anti-CD19 antibody; variable domains in FIG. 3, Fc regions in FIG. 4 (antibody)
heavy: EVQLVESGGGLVKPGGSLKLSCAASGYTFTSYVMHWVRQAPGKGLEWIGYINPYNDGTKYNEKFQGRVTISSDKSISTAYMELSSLRSEDTAMYYCARGTYYYGTRVFDYWGQGTLVTVSSASTKGPSVFPLAPSSKSTSGGTAALGCLVKDYFPEPVTVSWNSGALTSGVHTFPAVLQSSGLYSLSSWTVPSSSLGTQTYICNVNHKPSNTKVDKKVEPKSCDKTHTCPPCPAPELLGGPDVFLFPPKPKDTLMISRTPEVTCVVVDVSHEDPEVQFNWYVDGVEVHNAKTKPREEQFNSTFRVVSVLTVVHQDWLNGKEYKCKVSNKALPAPEEKTISKTKGQPREPQVYTLPPSREEMTKNQVSLTCLVKGFYPSDIAVEWESNGQPENNYKTTPPMLDSDGSFFLYSKLTVDKSRWQQGNVFSCSVMHEALHNHYTQKSLSLSPGK
light: DIVMTQSPATLSLSPGERATLSCRSSKSLQNVNGNTYLYWFQQKPGQSPQLLIYRMSNLNSGVPDRFSGSGSGTEFTLTISSLEPEDFAVYYCMQHLEYPITFGAGTKLEIKRTVAAPSVFIFPPSDEQLKSGTASVVCLLNNFYPREAKVQWKVDNALQSGNSQESVTEQDSKDSTYSLSSTLTLSKADYEKHKVYACEVTHQGLSSPVTKSFNRGEC
Turning to B2, the normalized specific killing in the assay with MEC-1 cells (Average of Experiments 1-3) is given as 0.5; in the assay on MEC-1 cells (Experiment 1) it was 0.6; in the assay on MEC-1 cells (Experiment 2), 0.4; in the assay with MEC-1 cells (Experiment 3), 0.5. In addition, the “% dead cells” value in the assay with MEC-1 cells (setting [3]) came to 35.2%; in the assay with MEC-1 cells (setting [4]), 29.8%; in the assay on MEC-1 cells (setting [5]), 47.01%. Moreover, the “Increased time to 4000 mg [%]” value in assay [1] (setting [6]) is on record as 17.52%. In addition, the “Reduced tumor growth at study Day 38 (%)” value in assay [1] (setting [6]) came to 38.5%. In assay [1] (setting [7]), the “Tumor Volume at study day 38, Average” value was determined as 2468 mm^3. Moreover, in assay [1] (setting [8]), the “Increased time to 4000 mg [%], normalized to Fractional Product combination = 1” value was determined as 0.48. The “Reduced tumor growth at study Day 38 (%), normalized to Fractional Product combination = 1” value in assay [1] (setting [8]) was found to be 0.57. For the same molecule, in assay [1] (single values (Group 1-8), MOR208 10 mg/kg, Fludarabine 125 mg/kg IP Q1Dx5, combination MOR208/FLU 125), the “Tumor Volume at study day 38” value is 1764 mm^3 and 1862 mm^3 and 3402 mm^3 and 2560 mm^3 and 2816 mm^3 and 2138 mm^3 and 2025 mm^3 and 3179 mm^3. Further, the “Median Survival Time” value in assay [2] came to 23.5 days.
